Test results taken from patent US20190167568A1, “Transdermal Drug Delivery System and Method for Using Same” (SENJU USA, INC., priority 2016, published 2019).

Details: pH 8
Text: In the present invention, the distribution coefficient (octanol/water distribution coefficient) may be adopted as the index of “water soluble” and “liposoluble” in the “water soluble steroid” and the “liposoluble steroid.” The distribution coefficient can be expressed in log D in consideration of the influence of pH, and water solubility is indicated by a minus value while liposolubility is indicated by a plus value.
The distribution coefficient can be obtained according to the method of JIS […] or JIS […].

Substance | distribution coefficient (log D)
prednisolone sodium phosphate | 0
dexamethasone metasulfobenzoate sodium | −2
